# In ChEMBL document CHEMBL1156236, “Trypanoside, anti-tuberculosis, leishmanicidal, and cytotoxic activities of tetrahydrobenzothienopyrimidines” (Bioorg Med Chem, 2010):
# Assays:
# A549 = assay: Cytotoxicity against human A549 cells; format: functional
# MOLT-4 = assay: Cytotoxicity against human MOLT4 cells; format: functional
# NCI/ADR-RES = assay: Cytotoxicity against human NCI/ADR-RES cells; format: functional
# COLO 205 = assay: Cytotoxicity against human COLO205 cells; format: functional
# NCI-H322M = assay: Cytotoxicity against human NCI-H322M cells; format: functional
# NCI-H23 = assay: Cytotoxicity against human NCI-H23 cells; format: functional
# SK-OV-3 = assay: Cytotoxicity against human SKOV3 cells; format: functional
# U-251 = assay: Cytotoxicity against human U251 cells; format: functional
# HCT-116 = assay: Cytotoxicity against human HCT116 cells; format: functional
# Leishmania braziliensis = assay: Antileishmanial activity against Leishmania braziliensis MHOM/PE/PER006 promastigote infected BALB/c mouse macrophages after 48 hrs by Giemsa staining method; format: functional, organism-based; conditions: MHOM/PE/PER006, 48 h
# IGROV-1 = assay: Cytotoxicity against human IGROV1 cells; format: functional
# SK-MEL-28 = assay: Cytotoxicity against human SK-MEL-28 cells; format: functional
# A498 = assay: Cytotoxicity against human A498 cells; format: functional
# NCI-H460 = assay: Cytotoxicity against human NCI-H460 cells; format: functional
# MCF7 = assay: Cytotoxicity against human MCF7 cells; format: functional
# Malme-3M = assay: Cytotoxicity against human MALME-3M cells; format: functional
# SNB-19 = assay: Cytotoxicity against human SNB19 cells; format: functional
# NCI-H522 = assay: Cytotoxicity against human NCI-H522 cells; format: functional
# PC-3 = assay: Cytotoxicity against human PC3 cells; format: functional
# UACC-62 = assay: Cytotoxicity against human UACC62 cells; format: functional
# HL-60(TB) = assay: Cytotoxicity against human HL-60(TB) cells; format: functional
# HCC 2998 = assay: Cytotoxicity against human HCC2998 cells; format: functional
# SN12C = assay: Cytotoxicity against human SN12C cells; format: functional
# TK-10 = assay: Cytotoxicity against human TK10 cells; format: functional
# HOP-62 = assay: Cytotoxicity against human HOP62 cells; format: functional
# [1] = Selectivity index, ratio of IC50 for african green monkey Vero cells to MIC for Mycobacterium tuberculosis H37Rv ATCC 27294 by microplate alamar blue assay; format: functional
# [2] = read-out: LC50 (the source's name)
smiles,measurement,setting,value
C(=N\Nc1ncnc2sc3c(c12)CCCC3)/c1ccccn1,GI50,A549,0.389 µM
same,TGI,A549,14.9 µM
same,CC50,A549; [2],70 µM
same,GI50,MOLT-4,0.261 µM
same,TGI,MOLT-4,0.774 µM
same,CC50,MOLT-4; [2],> 100 µM
same,GI50,NCI/ADR-RES,0.427 µM
same,TGI,NCI/ADR-RES,58.1 µM
same,CC50,NCI/ADR-RES; [2],> 0.1 µM
same,GI50,COLO 205,0.315 µM
same,TGI,COLO 205,14.7 µM
same,CC50,COLO 205; [2],54.5 µM
same,GI50,NCI-H322M,0.216 µM
same,TGI,NCI-H322M,35 µM
same,CC50,NCI-H322M; [2],> 100 µM
same,GI50,NCI-H23,0.705 µM
same,TGI,NCI-H23,34.3 µM
same,CC50,NCI-H23; [2],> 100 µM
same,GI50,SK-OV-3,0.41 µM
same,TGI,SK-OV-3,29.2 µM
same,CC50,SK-OV-3; [2],> 0.1 µM
same,GI50,U-251,0.369 µM
same,TGI,U-251,12.1 µM
same,CC50,U-251; [2],34.8 µM
same,GI50,HCT-116,0.166 µM
same,TGI,HCT-116,14.2 µM
same,CC50,HCT-116; [2],67.4 µM
same,IC50,Leishmania braziliensis,0.6 µM
same,GI50,IGROV-1,0.45 µM
same,TGI,IGROV-1,28.9 µM
same,CC50,IGROV-1; [2],> 100 µM
same,GI50,SK-MEL-28,0.422 µM
same,TGI,SK-MEL-28,16.7 µM
same,CC50,SK-MEL-28; [2],54.6 µM
same,GI50,A498,0.428 µM
same,TGI,A498,8.81 µM
same,CC50,A498; [2],37.2 µM
same,GI50,NCI-H460,0.4 µM
same,TGI,NCI-H460,1.73 µM
same,CC50,NCI-H460; [2],31.1 µM
same,GI50,MCF7,0.09 µM
same,TGI,MCF7,15.3 µM
same,CC50,MCF7; [2],80 µM
same,GI50,Malme-3M,0.275 µM
same,TGI,Malme-3M,10.3 µM
same,CC50,Malme-3M; [2],51.4 µM
same,GI50,SNB-19,0.767 µM
same,TGI,SNB-19,34.1 µM
same,CC50,SNB-19; [2],> 100 µM
same,GI50,NCI-H522,0.419 µM
same,TGI,NCI-H522,23.2 µM
same,CC50,NCI-H522; [2],> 100 µM
same,GI50,PC-3,0.431 µM
same,TGI,PC-3,71.1 µM
same,CC50,PC-3; [2],> 100 µM
same,GI50,UACC-62,0.379 µM
same,TGI,UACC-62,6.54 µM
same,CC50,UACC-62; [2],48.4 µM
same,GI50,HL-60(TB),0.12 µM
same,TGI,HL-60(TB),0.407 µM
same,CC50,HL-60(TB); [2],> 100 µM
same,GI50,HCC 2998,10 µM
same,TGI,HCC 2998,22.9 µM
same,CC50,HCC 2998; [2],52.6 µM
same,GI50,SN12C,0.426 µM
same,TGI,SN12C,15.3 µM
same,CC50,SN12C; [2],81 µM
same,GI50,TK-10,0.486 µM
same,TGI,TK-10,56.6 µM
same,CC50,TK-10; [2],> 100 µM
same,GI50,HOP-62,0.395 µM
same,TGI,HOP-62,17.7 µM
same,CC50,HOP-62; [2],> 100 µM
same,Ratio IC50,[1],0.2
